The values that follow come from US20240391862A1, “(1,4,5-TRISUBSTITUTED-1H-PYRAZOL-3-YL)OXY-2-ALKOXY ALKYL ACIDS AND THEIR DERIVATIVES, THEIR SALTS AND THEIR USE AS HERBICIDAL AGENTS” (Bayer AKtiengesellschaft, priority 2021, published 2024).

One data set concerns ZEAMX. Description: Post-emergence herbicidal effect and crop plant compatibility, greenhouse pot test. It counts as in vivo, Zea mays. Particulars: one-leaf stage, rated visually after about 3 weeks vs untreated controls. The gist of the method:
(§1)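 Visual % activity scored roughly 3 weeks post-spray against untreated plants, where 100% means death and 0% equals control. Plants were treated at the one-leaf stage, 2 to 3 weeks after sowing in sandy loam, at 20 to 320 g/ha.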

Another data set deals with ORYSA. The description is as above. The data set is classed as in vivo, Oryza sativa. Particulars: 20 g/ha, visual rating about 3 weeks after treatment, crop plant. The text has this: • ALOMY: Alopecurus myosuroides SETVI: Setaria viridis • AVEFA: Avena fatua POLCO: Fallopia convolvulus • AMARE: Amaranthus retroflexus ECHCG: Echinochloa crus-galli • LOLRJ: Lolium rigidum STEME: Stellaria media • VERPE: Veronica persica MATIN: Tripleurospermum inodorum • DIGSA: Digitaria sanguinalis ABUTH: Abutylon threophrasti • TRZAS: Triticum aestivum VIOTR: Viola tricolor • BRSNW: Brassica napus ZEAMX: Zea mays • PHBPU: Ipomoea purpurea GLXMA: Glycine max • ORYSA: Oryza sativa HORMU: Hordeum murinum
Seeds of monocotyledonous and dicotyledonous weeds and crop plants are placed in sandy loam in plastic or organic planting pots, covered with soil and cultivated in a greenhouse under controlled growth conditions. 2 to 3 weeks after sowing, the trial plants are treated at the one-leaf stage. The compounds of the invention, formulated in the form of wettable powders (WP) or as emulsion concentrates (EC), are then sprayed onto the green parts of the plants as aqueous suspension or emulsion with addition of 0.5% additive at a water application rate of 600 l/ha (converted). After the test plants have been kept in the greenhouse under optimum growth conditions for about 3 weeks, the activity of the preparations is rated visually in comparison to untreated controls. For example, 100% activity=the plants have died, 0% activity=like control plants.
Tables 20a to 38c below show the effects/crop compatibilities of selected compounds of the general formula (I) on various harmful plants at an application rate corresponding to 20 to 320 g/ha, which were obtained by the trial procedure specified above.

The test system of another data set is ABUTH. Description: Post-emergence herbicidal effect, greenhouse pot test. As to conditions: visual rating about 3 weeks after treatment. The data set is classed as in vivo, Abutilon theophrasti. In outline:
as §1

In a further data set the test system is ALOMY. Described as above. The data set is classed as in vivo, Alopecurus myosuroides. Particulars: 320 g/ha, visual rating about 3 weeks after treatment. The gist of the method:
as §1

The test system of a further data set is AMARE. Described as above. It counts as in vivo, Amaranthus retroflexus. Particulars: visual rating about 3 weeks after treatment. In outline: as §1
A further data set concerns AVEFA. Described as above. As to conditions: 320 g/ha, visual rating about 3 weeks after treatment. The data set is classed as in vivo, Avena fatua. In outline:
as §1

Another data set has as its system DIGSA. The description is as above. It counts as in vivo, Digitaria sanguinalis. As to conditions: 320 g/ha, visual rating about 3 weeks after treatment. The gist of the method: as §1
The next data set relates to ECHCG. The data set is described as above. The data set is classed as in vivo, Echinochloa crus-galli. The gist of the method:
as §1

The subject of another data set is MATIN. The data set is described as above. It counts as in vivo, Tripleurospermum inodorum. The gist of the method:
as §1

A further data set concerns PHBPU. The data set is described as above. It counts as in vivo, Ipomoea purpurea. In outline:
as §1

In another data set the test system is POLCO. The description is as above. It counts as in vivo, Fallopia convolvulus. Particulars: 320 g/ha. The gist of the method:
as §1

The subject of another data set is SETVI. The data set is described as above. It counts as in vivo, Setaria viridis. The gist of the method:
as §1

For another data set, the system named is VERPE. Described as above. It counts as in vivo, Veronica persica. The gist of the method: as §1
The subject of the next data set is VIOTR. Described as above. It counts as in vivo, Viola tricolor. In outline:
as §1

Data set [1] has as its system various unwanted plants. As to the kind of experiment: Pre-emergence effect against various unwanted plants (PE): comparative test of I-01 with compounds from WO2020/245044 (Tables 40a, 40b) and summary statements. It counts as in vivo. Particulars: comparative test. The source says: Seeds of monocotyledonous and dicotyledonous weed plants and crop plants are placed in plastic or organic planting pots and covered with soil. The compounds of the invention, formulated in the form of wettable powders (WP) or as emulsion concentrates (EC), are then applied to the surface of the covering soil as aqueous suspension or emulsion with addition of 0.5% additive at a water application rate equivalent to 600 l/ha. After the treatment, the pots are placed in a greenhouse and kept under good growth conditions for the trial plants. After about 3 weeks, the effect of the preparations is scored visually in comparison with untreated controls as percentages. For example, 100% activity=the plants have died, 0% activity=like control plants. Tables 40a and 40b below show the effects of the inventive compound (I-01) with structurally similar compounds (from WO2020/245044) on various harmful plants at an application rate corresponding to 320 g/ha or less, which have been obtained by the trial procedure specified hereinafter. The inventive compound (I-01) differs here by variance of a significant structural feature from the structurally similar compound with regard to the R^2 radical. Seeds of monocotyledonous and dicotyledonous weed plants and crop plants are placed in plastic or organic planting pots and covered with soil. The compounds of the invention, formulated in the form of wettable powders (WP) or as emulsion concentrates (EC), are then applied to the surface of the covering soil as aqueous suspension or emulsion with addition of 0.5% additive at a water application rate equivalent to 600 l/ha. After the treatment, the pots are placed in a greenhouse and kept under good growth conditions for the trial plants. After about 3 weeks, the effect of the preparations is scored visually in comparison with untreated controls as percentages. For example, 100% activity=the plants have died, 0% activity=like control plants. Effects/crop compatibilities of selected compounds (Table 39) on various harmful plants at an application rate corresponding to 80 to 320 g/ha that have been obtained by the trial procedure specified hereinabove are shown in Tables 40a and 40b below.

Data set [2] concerns various unwanted plants. As to the kind of experiment: Post-emergence effect against various unwanted plants (PO): comparative test of I-01 with compounds from WO2020/245044 (Tables 41a, 41b) and summary statements. The data set is classed as in vivo. Particulars: comparative test. As for the experimental part:
Seeds of monocotyledonous and dicotyledonous weeds and crop plants are placed in sandy loam in plastic or organic planting pots, covered with soil and cultivated in a greenhouse under controlled growth conditions. 2 to 3 weeks after sowing, the trial plants are treated at the one-leaf stage. The compounds of the invention, formulated in the form of wettable powders (WP) or as emulsion concentrates (EC), are then sprayed onto the green parts of the plants as aqueous suspension or emulsion with addition of 0.5% additive at a water application rate of 600 l/ha (converted). After the test plants have been kept in the greenhouse under optimum growth conditions for about 3 weeks, the activity of the preparations is rated visually in comparison to untreated controls. For example, 100% activity=the plants have died, 0% activity=like control plants. […] Tables 41a and 41b below show the effects of the inventive compound (I-01) with structurally similar compounds (WO2020/245044) on various harmful plants at an application rate corresponding to 320 g/ha or less, which have been obtained by the trial procedure specified hereinafter. The inventive compound (I-01) differs here by variance of a significant structural feature from the structurally similar compound with regard to the R^2 radical. Seeds of monocotyledonous and dicotyledonous weeds and crop plants are placed in sandy loam in plastic or organic planting pots, covered with soil and cultivated in a greenhouse under controlled growth conditions. 2 to 3 weeks after sowing, the trial plants are treated at the one-leaf stage. The compounds of the invention, formulated in the form of wettable powders (WP) or as emulsion concentrates (EC), are then sprayed onto the green parts of the plants as aqueous suspension or emulsion with addition of 0.5% additive at a water application rate of 600 l/ha (converted). After the test plants have been kept in the greenhouse under optimum growth conditions for about 3 weeks, the activity of the preparations is rated visually in comparison to untreated controls. For example, 100% activity=the plants have died, 0% activity=like control plants. Effects/crop compatibilities of selected compounds (see Table 39) on various harmful plants at an application rate corresponding to 80 to 320 g/ha that have been obtained by the trial procedure specified hereinafter are shown in Tables 41a and 41b below.

As for `COC(=O)CCOC(=O)C(OC)Oc1nn(-c2ccccc2F)c(-c2ccc(F)nc2)c1Br` (single isomer, unassigned) [Example I-20], the “Post-emergence effect at 20 g/ha against ZEAMX in %” value with ZEAMX (20 g/ha) turned out to be 0%. For the same compound, in the data set on ZEAMX (80 g/ha), the “Post-emergence effect at 80 g/ha against ZEAMX in %” value amounted to 20%. Besides, the “Post-emergence effect against ORYSA” value with ORYSA is 0%. In addition, the “Post-emergence effect against ABUTH” value with ABUTH (80 g/ha) is 80%; in the data set on ABUTH (320 g/ha) it was 90%. Besides, the “Post-emergence effect against ALOMY” value with ALOMY amounted to 80%. For the same compound, the entries for the “Post-emergence effect against AMARE” value in the data set with AMARE (80 g/ha) and in the data set with AMARE (320 g/ha) were 80% and 90%, respectively. For the same compound, in the data set with AVEFA, the “Post-emergence effect against AVEFA” value is 90%. Moreover, the “Post-emergence effect against DIGSA” value in the data set with DIGSA worked out at 90%. Moreover, the entries for the “Post-emergence effect against ECHCG in %” value in the data set on ECHCG (80 g/ha) and in the data set on ECHCG (320 g/ha) were 80% and 90%, respectively. Besides, the “Post-emergence effect against MATIN in %” value with MATIN (80 g/ha) was determined as 80%; with MATIN (320 g/ha) it was 90%. For the same compound, the “Post-emergence effect against PHBPU in %” value is 80% in the data set with PHBPU (80 g/ha) and 90% in the data set on PHBPU (320 g/ha). Moreover, the “Post-emergence effect against POLCO in %” value with POLCO stood at 80%. The “Post-emergence effect against SETVI in %” value with SETVI (80 g/ha) and in the data set with SETVI (320 g/ha) was 80% in each case. The “Post-emergence effect against VERPE in %” value with VERPE (80 g/ha) is listed as 80%; in the data set on VERPE (320 g/ha), 90%. For the same compound, the results for the “Post-emergence effect against VIOTR in %” value in the data set on VIOTR (80 g/ha) and with VIOTR (320 g/ha) were 80% and 90%, respectively.

Take `CCCC(Oc1nn(-c2ccccc2F)c(-c2ccc(F)nc2)c1Br)C(=O)OCC` (centres unmarked) [A]: in the data set with various unwanted plants [1] (320 g/ha), the “Pre-emergence effect, Effect %, ALOMY” value is given as 60%; the “Pre-emergence effect, Effect %, ECHCG” value was 80%; the “Pre-emergence effect, Effect %, LOLRI” value is reported as 30%; the “Pre-emergence effect, Effect %, MATIN” value was determined as 30%. The “Pre-emergence effect, Effect %, SETVI” value with various unwanted plants [1] (320 g/ha) is listed as 70%. Besides, in the data set on various unwanted plants [1] (80 g/ha), the “Pre-emergence effect, Effect %, ECHCG” value is on record as 0%; the “Pre-emergence effect, Effect %, LOLRI” value is given as 20%; the “Pre-emergence effect, Effect %, MATIN” value is listed as 0%; the “Pre-emergence effect, Effect %, POLCO” value is 20%. Also, in the data set with various unwanted plants [2] (80 g/ha), the “Post-emergence effect, Effect %, ALOMY” value was found to be 0%; the “Post-emergence effect, Effect %, AVEFA” value came out at 30%; the “Post-emergence effect, Effect %, ECHCG” value was 50%; the “Post-emergence effect, Effect %, LOLRI” value amounted to 0%. Further, in the data set with various unwanted plants [2] (80 g/ha), the “Post-emergence effect, Effect %, SETVI” value is given as 20%. In the data set with various unwanted plants [2] (320 g/ha), the “Post-emergence effect, Effect %, ALOMY” value came out at 50%; the “Post-emergence effect, Effect %, AVEFA” value was 40%; the “Post-emergence effect, Effect %, ECHCG” value is listed as 80%; the “Post-emergence effect, Effect %, LOLRI” value was found to be 20%. For the same compound, in the data set with various unwanted plants [2] (320 g/ha), the “Post-emergence effect, Effect %, SETVI” value is 70%.

Regarding `CCOC(=O)C(F)Oc1nn(-c2ccccc2F)c(-c2ccc(F)nc2)c1Br` (centres unmarked) [C], in the data set with various unwanted plants [1] (320 g/ha), the “Pre-emergence effect, Effect %, ALOMY” value was 80%; the “Pre-emergence effect, Effect %, ECHCG” value came out at 70%; the “Pre-emergence effect, Effect %, LOLRI” value was 90%; the “Pre-emergence effect, Effect %, MATIN” value came to 80%. For the same compound, the “Pre-emergence effect, Effect %, SETVI” value with various unwanted plants [1] (320 g/ha) turned out to be 70%. Besides, in the data set on various unwanted plants [1] (80 g/ha), the “Pre-emergence effect, Effect %, ECHCG” value was 0%; the “Pre-emergence effect, Effect %, LOLRI” value came to 10%; the “Pre-emergence effect, Effect %, MATIN” value is given as 70%; the “Pre-emergence effect, Effect %, POLCO” value came out at 50%. For the same compound, in the data set on various unwanted plants [2] (80 g/ha), the “Post-emergence effect, Effect %, ALOMY” value was 50%; the “Post-emergence effect, Effect %, AVEFA” value turned out to be 60%; the “Post-emergence effect, Effect %, ECHCG” value stood at 80%; the “Post-emergence effect, Effect %, LOLRI” value is listed as 10%. Also, the “Post-emergence effect, Effect %, SETVI” value in the data set with various unwanted plants [2] (80 g/ha) was 70%.
